Four molecules from patent US20260042731A1, “(2,4-DICHLOROPHENOXY)ACETIC ACID ANALOGS” (CORTEVA AGRISCIENCE LLC, priority 2022, published 2026) can be followed below.

Series [1] concerns Corn (ZEAMX). The experiment in a line: Greenhouse post-emergence mixture trials, percent visual control. It is filed as in vivo. The note with it: Zea mays, post-emergence, 504 h.
The test system of series [2] is Common Lambsquarters (CHEAL). Described as above. It is filed as in vivo.
Series [3] has as its system Velvetleaf (ABUTH). The series is described as above. It is filed as in vivo. The conditions noted are these: Abutilon theophrasti, post-emergence, 504 h; for pest or weed control at 5 g/ha: Arylex 5 g ai or ae/ha alone.
Series [4] deals with Amaranthus rudis (AMATA), tall water hemp. Nature of the series: Postemergence herbicide evaluation, growth of Amaranthus rudis (AMATA). It is filed as in vivo. The conditions noted are these: Amaranthus tuberculatus, post-emergence; for pest or weed control at 280 g/ha: 280 g ae/ha; for pest or weed control at 560 g/ha: 560 g ae/ha.
Series [5] deals with Ambrosia artemisiifolia (AMBEL), common ragweed. Nature of the series: Postemergence herbicide evaluation, growth of Ambrosia artemisiifolia (AMBEL). The class given is in vivo. The conditions noted are these: Ambrosia artemisiifolia, post-emergence; for pest or weed control at 280 g/ha: 280 g ae/ha; for pest or weed control at 560 g/ha: 560 g ae/ha.
Series [6] has as its system Abutilon theophrasti (ABUTH), velvetleaf. The experiment in a line: Postemergence herbicide evaluation, growth of Abutilon theophrasti (ABUTH). It is filed as in vivo. The note with it: Abutilon theophrasti, post-emergence; for pest or weed control at 280 g/ha: 280 g ae/ha; for pest or weed control at 560 g/ha: 560 g ae/ha.
Series [7] relates to Chenopodium album (CHEAL), common lambsquarters. The experiment in a line: Postemergence herbicide evaluation, growth of Chenopodium album (CHEAL). It is filed as in vivo. The note with it: Chenopodium album, post-emergence; for pest or weed control at 280 g/ha: 280 g ae/ha; for pest or weed control at 560 g/ha: 560 g ae/ha.
For series [8], the system named is glyphosate resistant Conyza canadensis (L.) (ERICA), horseweed. The experiment in a line: Postemergence herbicide evaluation, growth of Conyza canadensis (ERICA). The class given is in vivo. The conditions noted are these: Erigeron canadensis, post-emergence; for pest or weed control at 280 g/ha: 280 g ae/ha; for pest or weed control at 560 g/ha: 560 g ae/ha.
The nature of series [9]: Volatility of compounds measured by thermogravimetric analysis (TGA). It is filed as physicochemical.
Series [10] deals with weeds ABUTH, AMATA, AMBEL, CHEAL, ERICA. The experiment in a line: Postemergence herbicide evaluation, overall average % weed control across ABUTH, AMATA, AMBEL, CHEAL and ERICA. The class given is in vivo. The note with it: post-emergence, average over five weeds, read-out: Overall Ave % Weed Control; for pest or weed control at 560 g/ha: 560 g ae/ha.
The test system is the same in series [11]. The experiment in a line: Postemergence herbicide evaluation, overall average % weed control (ABUTH, AMATA, AMBEL, CHEAL, ERICA). The class given is in vivo. The note with it: post-emergence, read-out: Overall Ave % Weed Control; for pest or weed control at 280 g/ha: 280 g ae/ha.
Setting [12] is: Chenopodium album, post-emergence, 504 h, read-out: % Control.
[13] abbreviates: 168 h, 7 DAA, read-out: Ave. AMATA, percent reduction in plant size relative to the untreated control.
Setting [14] is: 504 h, 21 DAA, percent reduction in plant size vs untreated control, read-out: Ave. AMATA.
Setting [15] is: 168 h, 7 DAA, read-out: AVE. AMBEL, percent reduction in plant size relative to the untreated control.
Where [16] appears, read: 504 h, 21 DAA, percent reduction in plant size vs untreated control, read-out: AVE. AMBEL.
The mark [17] stands for this setting: 168 h, 7 DAA, read-out: AVE. ABUTH, percent reduction in plant size relative to the untreated control.
[18] abbreviates: 504 h, 21 DAA, percent reduction in plant size vs untreated control, read-out: AVE. ABUTH.
Setting [19] is: 168 h, 7 DAA, read-out: Ave. CHEAL, percent reduction in plant size relative to the untreated control.
Setting [20] is: 504 h, 21 DAA, percent reduction in plant size vs untreated control, read-out: Ave. CHEAL.
Setting [21] is: 168 h, 7 DAA, read-out: Ave. ERICA, percent reduction in plant size relative to the untreated control.
The mark [22] stands for this setting: 504 h, 21 DAA, percent reduction in plant size vs untreated control, read-out: Ave. ERICA.

Structures can show the parent of a compound that is named as a salt. Where two headings read alike, the source gives them in different places.

On to `O=C(O)CNCP(=O)(O)O` [Glyphosate, N-(phosphonomethyl) glycine, reference compound], for which, in [1] (read-out: % Control), the plant injury at 375 g/ha was 70%. In series [2] (setting [12]), the pest or weed control at 375 g/ha worked out at 50%, the pest or weed control at 1120 g/ha turned out to be 65% and the pest or weed control at 1680 g/ha was 85%. Further, in [3] (read-out: % Control), the pest or weed control at 375 g/ha was 85%, the pest or weed control at 1120 g/ha was determined as 100% and the pest or weed control at 1680 g/ha came to 100%.
In the case of `COC(=O)c1nc(-c2ccc(Cl)c(OC)c2F)cc(N)c1Cl` [Arylex, halauxifen-methyl, reference compound], the plant injury at 5 g/ha in [1] (Trial 2 Trt 19, ZEAMX, B2 0 g ae/ha, Arylex 5 g ai or ae/ha alone, 21 DAA) turned out to be 70%; in series [1] (Trial Bridge 1, ZEAMX, Arylex 5 g ai or ae/ha alone (compound rate 0), 21 DAA, single replicate), 65%. Also, the plant injury at […] in series [1] (Trial 2 Trt 22, ZEAMX, B2 0 g ae/ha, Arylex 6.5 g ai or ae/ha alone, 21 DAA) is 75%. For the same molecule, the pest or weed control at 5 g/ha in [2] (Chenopodium album, post-emergence, 504 h, Trial 2 Trt 19: B2 0 g ae/ha, Arylex 5 g ai or ae/ha alone, CHEAL, 21 DAA) was found to be 100%; in series [3] (Trial 2 Trt 19, B2 0 g ae/ha, ABUTH, 21 DAA), 100%; in series [3] (Trial Bridge 1 Trt 7, ABUTH, D10 0 g ae/ha, 21 DAA) it was 100%. Also, in series [2] (Chenopodium album, post-emergence, 504 h, Trial 2 Trt 22: B2 0 g ae/ha, Arylex 6.5 g ai or ae/ha alone, CHEAL, 21 DAA), the pest or weed control at […] worked out at 100%. In addition, in series [2] (Trial Bridge 1, CHEAL, mixing partner alone (D10 at 0 g ae/ha), Arylex 5 g ai or ae/ha, 21 DAA), the “% Control” value stood at 100%. The pest or weed control at 65 g/ha in series [3] (Trial 2 Trt 22, B2 0 g ae/ha, Arylex 65 g ai or ae/ha alone, ABUTH, 21 DAA) was determined as 100%.
Consider `CP(=O)(O)CCC(N)C(=O)O` (centres unmarked) [Glufosinate, 2-amino-4-(hydroxy(methyl)phosphinyl)butanoic acid ammonium salt], for which, in [1] (read-out: % Control), the plant injury at 200 g/ha is 5% and the plant injury at 900 g/ha was found to be 10%. Also, in series [3] (read-out: % Control), the pest or weed control at 200 g/ha amounted to 5%.
As to `COc1ncc(OC(=O)COc2ccc(Cl)cc2Cl)cn1` [Compound E12], the pest or weed control at 280 g/ha in [4] (setting [13]) turned out to be 70%; in series [4] (336 h, 14 DAA, read-out: Ave. AMATA, percent reduction in plant size relative to the untreated control), 80%; in series [4] (setting [14]) it was 70%; in series [5] (setting [15]), 75%; in [5] (336 h, 14 DAA, read-out: AVE. AMBEL, percent reduction in plant size relative to the untreated control), 70%; in series [5] (setting [16]) it was 100%. For the same molecule, the pest or weed control at 280 g/ha in series [6] (setting [17]) amounted to 50%; in series [6] (336 h, 14 DAA, read-out: AVE. ABUTH, percent reduction in plant size relative to the untreated control), 60%; in [6] (setting [18]), 65%; in series [7] (setting [19]), 77.5%; in series [7] (336 h, 14 DAA, read-out: Ave. CHEAL, percent reduction in plant size relative to the untreated control), 90%; in [7] (setting [20]), 87.5%. Also, the pest or weed control at 280 g/ha in [8] (setting [21]) was 75%; in series [8] (336 h, 14 DAA, read-out: Ave. ERICA, percent reduction in plant size relative to the untreated control) it was 97.5%; in series [8] (setting [22]) it was 96.5%; in series [10] (504 h, 280 g ae/ha, 21 DAA), 83.8%; in [11] (168 h, 7 DAA) it was 69.5%; in [11] (336 h, 14 DAA), 79.5%. The pest or weed control at 560 g/ha in [4] (setting [13]) came out at 75%; in [4] (336 h, 14 DAA, percent reduction in plant size vs untreated control, read-out: Ave. AMATA), 87.5%; in series [4] (setting [14]), 87.5%; in [5] (setting [15]), 77.5%; in [5] (336 h, 14 DAA, percent reduction in plant size vs untreated control, read-out: AVE. AMBEL), 90%; in [5] (setting [16]) it was 100%. Besides, the pest or weed control at 560 g/ha in series [6] (setting [17]) amounted to 50%; in series [6] (336 h, 14 DAA, percent reduction in plant size vs untreated control, read-out: AVE. ABUTH), 52.5%; in series [6] (setting [18]), 62.5%; in series [7] (setting [19]), 80%; in series [7] (336 h, 14 DAA, percent reduction in plant size vs untreated control, read-out: Ave. CHEAL), 95%; in series [7] (setting [20]), 87.5%. Further, the pest or weed control at 560 g/ha came out at 85% in [8] (setting [21]); 100% in series [8] (336 h, 14 DAA, percent reduction in plant size vs untreated control, read-out: Ave. ERICA); 100% in series [8] (setting [22]); 85% in [10] (336 h, 14 DAA); 87.5% in [10] (504 h, 21 DAA); 73.5% in series [11] (168 h, 560 g ae/ha, 7 DAA). The “TGA Data (rate of weight loss, volatility)” value in [9] amounted to 0.04464 µg/min.
